The text below walks through data of patent US11472808B2, “Substituted pyrrolo[1,2-c]pyrimidines as hepatitis B antiviral agents” (Enanta Pharmaceuticals, Inc., priority 2019, dated 2022).

Structures are written as SMILES.

The test system of the first experiment is HBV. As to the kind of experiment: HepAD38 anti-HBV assay: reduction of viral product accumulation (virion DNA qPCR, HBsAg/HBeAg ELISA). Type of experiment: cell-based. To be noted: Hepatitis B virus, 120 h; HepAD38 cells; concentration reducing viral product accumulation by 50% relative to no drug controls; harvest five days after compound addition; read-out: HepAD38 EC50. The essentials:
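Tetracycline-free HepAD38 cells treated 5 days with compound (1:200 DMSO dilution), or 8 days with media and compound refreshed on d2 and d5. Virion DNA quantified by qPCR; HBsAg or HBeAg by ELISA. EC50 is the concentration reducing viral product accumulation 50% versus no-drug controls.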
As for `O=C(N[C@H]1CC2=C(c3ccn(C(F)F)n3)[C@H](c3ccc(F)cc3Cl)N=C(c3nccs3)N2C1)C1CC(O)C1` (some centres unmarked) [Example 250], the EC50 was 0.1 to 0.4 µM. The same measure, in the same setting: next, `O=C(O)Cc1cccc(S(=O)(=O)N[C@H]2CC3=C(c4ccn(C(F)F)n4)[C@H](c4ccc(F)cc4Cl)N=C(c4nccs4)N3C2)c1` [Example 33]: 0.1 to 0.4 µM; `O=C(N[C@H]1CC2=C(c3ccn(C(F)F)n3)[C@H](c3ccc(F)cc3Cl)N=C(c3nccs3)N2C1)O[C@H]1CC[C@H](O)CC1` [Example 254]: below 0.1 µM. Same read-out and setting: under `O=C(O)c1ccc(S(=O)(=O)NCC2(F)CC3=C(c4ccn(C(F)F)n4)[C@H](c4ccc(F)cc4Cl)N=C(c4nccs4)N3C2)cc1` (some centres unmarked) [Example 192] stands above 0.4 µM; under `O=C1NC2(CCN(S(=O)(=O)N[C@H]3CC4=C(c5ccn(C(F)F)n5)[C@H](c5ccc(F)cc5Cl)N=C(c5nccs5)N4C3)CC2)CO1` [Example 162], below 0.1 µM; under `O=C(N[C@H]1CC2=C(c3ccn(C(F)F)n3)[C@H](c3ccc(F)cc3Cl)N=C(c3nccs3)N2C1)N1CC[C@@H](O)C1` [Example 225], below 0.1 µM. Same read-out and setting: under `O=S(=O)(N[C@H]1CC2=C(c3ccn(C(F)F)n3)[C@H](c3ccc(F)cc3Cl)N=C(c3nccs3)N2C1)c1ccc(C(F)(F)F)cc1` [Example 406] stands below 0.1 µM; under `CS(=O)(=O)[C@H]1CC2=C(c3ccn(C(F)F)n3)[C@H](c3ccc(F)cc3Cl)N=C(c3nccs3)N2C1` [Example 134], 0.1 to 0.4 µM; under `OC[C@]1(F)CC2=C(c3ccn(C(F)F)n3)[C@H](c3ccc(F)cc3Cl)N=C(c3nccs3)N2C1` [Example 165], 0.1 to 0.4 µM. Regarding `CC(C)[C@@H](NS(=O)(=O)N[C@H]1CC2=C(c3ccn(C(F)F)n3)[C@H](c3ccc(F)cc3Cl)N=C(c3nccs3)N2C1)c1ccccn1` [Example 341], the EC50 lay within 0.1 to 0.4 µM. Take `CS(=O)(=O)NC[C@]1(N)CC2=C(c3ccn(C(F)F)n3)[C@H](c3ccc(F)cc3Cl)N=C(c3nccs3)N2C1` [Example 146]: the concentration for a half-maximal effect (EC50) is above 0.4 µM.

As for `COCCOC[C@@]1(O)CC2=C(c3ccn(C(F)F)n3)[C@H](c3ccc(F)cc3Cl)N=C(c3nccs3)N2C1` [Example 112], the EC50 is above 0.4 µM. Still for that read-out and setting: next, `O[C@@]1(CCl)CC2=C(c3ccn(C(F)F)n3)[C@H](c3ccc(F)cc3Cl)N=C(c3nccs3)N2C1` [Example 124]: below 0.1 µM. On the same count and under the same terms, under `O=S(=O)(N[C@H]1CC2=C(c3ccn(C(F)F)n3)[C@H](c3ccc(F)cc3Cl)N=C(c3nccs3)N2C1)c1cc(F)c(F)c(F)c1` [Example 412] stands below 0.1 µM; under `CCOC(=O)Cc1ccccc1S(=O)(=O)N[C@H]1CC2=C(c3ccn(C(F)F)n3)[C@H](c3ccc(F)cc3Cl)N=C(c3nccs3)N2C1` [Example 30], 0.1 to 0.4 µM. Same read-out and setting: under `O=S(=O)(CCCC(O)c1ccccn1)N[C@H]1CC2=C(c3ccn(C(F)F)n3)[C@H](c3ccc(F)cc3Cl)N=C(c3nccs3)N2C1` (some centres unmarked) [Example 297] stands 0.1 to 0.4 µM. With `O/N=C/[C@@]1(F)CC2=C(c3ccn(C(F)F)n3)[C@H](c3ccc(F)cc3Cl)N=C(c3nccs3)N2C1` [Example 180], the 50% effective concentration (EC50) was above 0.4 µM. On the same count and under the same terms, under `CS(=O)(=O)CCCS(=O)(=O)N[C@H]1CC2=C(c3ccn(C(F)F)n3)[C@H](c3ccc(F)cc3Cl)N=C(c3nccs3)N2C1` [Example 329] stands below 0.1 µM. The same measure, in the same setting: next, `C=CS(=O)(=O)N[C@H]1CC2=C(c3ccn(C(F)F)n3)[C@H](c3ccc(F)cc3Cl)N=C(c3nccs3)N2C1` [Example 50]: 0.1 to 0.4 µM; `C=CCN(C[C@]1(O)CC2=C(c3ccn(C(F)F)n3)[C@H](c3ccc(F)cc3Cl)N=C(c3nccs3)N2C1)S(C)(=O)=O` [Example 129]: above 0.4 µM; `CC(=O)OCCCS(=O)(=O)N[C@H]1CC2=C(c3ccn(C(F)F)n3)[C@H](c3ccc(F)cc3Cl)N=C(c3nccs3)N2C1` [Example 310]: below 0.1 µM. Still for that read-out and setting: next, `O=S(=O)(CCCO)N[C@H]1CC2=C(c3ccn(C(F)F)n3)[C@H](c3ccc(F)cc3Cl)N=C(c3nccs3)N2C1` [compound 313]: below 0.1 µM.

With `CC1(NS(=O)(=O)N[C@H]2CC3=C(c4ccn(C(F)F)n4)[C@H](c4ccc(F)cc4Cl)N=C(c4nccs4)N3C2)CCC1` [Example 416], the EC50 is below 0.1 µM. Still for that read-out and setting: next, `COC[C@]1(O)CC2=C(c3ccn(C(F)F)n3)[C@H](c3ccc(F)cc3Cl)N=C(c3nccs3)N2C1` [Example 107]: above 0.4 µM. Still for that read-out and setting: next, `O=S(=O)(N[C@H]1CC2=C(c3ccn(C(F)F)n3)[C@H](c3ccc(F)cc3Cl)N=C(c3nccs3)N2C1)c1ccc2ncsc2c1` [Example 398]: below 0.1 µM; `ONC[C@]1(O)CC2=C(c3ccn(C(F)F)n3)[C@H](c3ccc(F)cc3Cl)N=C(c3nccs3)N2C1` [Example 123]: above 0.4 µM; `OC/C=C/[C@]1(F)CC2=C(c3ccn(C(F)F)n3)[C@H](c3ccc(F)cc3Cl)N=C(c3nccs3)N2C1` [Example 174]: 0.1 to 0.4 µM.

For `CC(=O)OCCCS(=O)(=O)N([C@H]1CC2=C(c3ccn(C(F)F)n3)[C@H](c3ccc(F)cc3Cl)N=C(c3nccs3)N2C1)S(=O)(=O)CCCOC(C)=O` [Example 311], the EC50 was below 0.1 µM. For `O=S(=O)(NCc1ccccc1)N[C@H]1CC2=C(c3ccn(C(F)F)n3)[C@H](c3ccc(F)cc3Cl)N=C(c3nccs3)N2C1` [Example 305], the EC50 was 0.1 to 0.4 µM. On the same count and under the same terms, under `COC(=O)N1CCN(S(=O)(=O)N[C@H]2CC3=C(c4ccn(C(F)F)n4)[C@H](c4ccc(F)cc4Cl)N=C(c4nccs4)N3C2)CC1` [Example 152] stands below 0.1 µM; under `CSC[C@@]1(O)CC2=C(c3ccn(C(F)F)n3)[C@H](c3ccc(F)cc3Cl)N=C(c3nccs3)N2C1` [Example 142], above 0.4 µM; under `O=C(N[C@H]1CC2=C(c3ccn(C(F)F)n3)[C@H](c3ccc(F)cc3Cl)N=C(c3nccs3)N2C1)N1C[C@H](O)[C@@H](O)C1` [Example 230], 0.1 to 0.4 µM. Same read-out and setting: under `ONC[C@@]1(O)CC2=C(c3ccn(C(F)F)n3)[C@H](c3ccc(F)cc3Cl)N=C(c3nccs3)N2C1` [Example 122] stands above 0.4 µM. Still for that read-out and setting: next, `CCOC(=O)CC(NS(=O)(=O)N[C@H]1CC2=C(c3ccn(C(F)F)n3)[C@H](c3ccc(F)cc3Cl)N=C(c3nccs3)N2C1)c1ccccn1` (some centres unmarked) [Example 355]: 0.1 to 0.4 µM; `N#CCCCS(=O)(=O)N([C@H]1CC2=C(c3ccn(C(F)F)n3)[C@H](c3ccc(F)cc3Cl)N=C(c3nccs3)N2C1)S(=O)(=O)CCCC#N` [Example 136]: 0.1 to 0.4 µM; `CC1(C)CCCCN1S(=O)(=O)N[C@H]1CC2=C(c3ccn(C(F)F)n3)[C@H](c3ccc(F)cc3Cl)N=C(c3nccs3)N2C1` [Example 295]: below 0.1 µM. On to `CC(C)C[C@@H](NS(=O)(=O)N[C@H]1CC2=C(c3ccn(C(F)F)n3)[C@H](c3ccc(F)cc3Cl)N=C(c3nccs3)N2C1)c1ccccn1` [Example 360], for which the concentration for a half-maximal effect (EC50) is 0.1 to 0.4 µM.

Turning to `COC(=O)NC[C@@]1(F)CC2=C(c3ccn(C(F)F)n3)[C@H](c3ccc(F)cc3Cl)N=C(c3nccs3)N2C1` [Example 186], the EC50 was in the range of 0.1 to 0.4 µM. Still for that read-out and setting: under `O=C(O)C1CCN(C(=O)N[C@H]2CC3=C(c4ccn(C(F)F)n4)[C@H](c4ccc(F)cc4Cl)N=C(c4nccs4)N3C2)CC1` [Example 212] stands 0.1 to 0.4 µM; under `COC(=O)[C@H]1C[C@@H](S(=O)(=O)N[C@H]2CC3=C(c4ccn(C(F)F)n4)[C@H](c4ccc(F)cc4Cl)N=C(c4nccs4)N3C2)C1` [Example 15], 0.1 to 0.4 µM. The same measure, in the same setting: next, `O=S(=O)(N[C@H]1CC2=C(c3ccn(C(F)F)n3)[C@H](c3ccc(F)cc3Cl)N=C(c3nccs3)N2C1)c1cc(F)cc(F)c1` [Example 407]: 0.1 to 0.4 µM. The same measure, in the same setting: under `O=S(=O)(N[C@H]1CC2=C(c3ccn(C(F)F)n3)[C@H](c3ccc(F)cc3Cl)N=C(c3nccs3)N2C1)c1cccc(C(F)(F)F)c1` [Example 399] stands 0.1 to 0.4 µM; under `O=S(=O)(NCC1(c2ccccn2)CC1)N[C@H]1CC2=C(c3ccn(C(F)F)n3)[C@H](c3ccc(F)cc3Cl)N=C(c3nccs3)N2C1` [Example 316], 0.1 to 0.4 µM. With `O=S(=O)(Nc1ccccn1)N[C@H]1CC2=C(c3ccn(C(F)F)n3)[C@H](c3ccc(F)cc3Cl)N=C(c3nccs3)N2C1` [Example 320], the EC50 fell in the range of 0.1 to 0.4 µM. Turning to `O=S(=O)(CCc1ccccn1)N[C@H]1CC2=C(c3ccn(C(F)F)n3)[C@H](c3ccc(F)cc3Cl)N=C(c3nccs3)N2C1` [Example 380], the EC50 was 0.1 to 0.4 µM. The same measure, in the same setting: under `CN(C)CCS(=O)(=O)N[C@H]1CC2=C(c3ccn(C(F)F)n3)[C@H](c3ccc(F)cc3Cl)N=C(c3nccs3)N2C1` [Example 53] stands below 0.1 µM. Take `O=C(O)C1CCCN(C(=O)C2CCCN(CCS(=O)(=O)N[C@H]3CC4=C(c5ccn(C(F)F)n5)[C@H](c5ccc(F)cc5Cl)N=C(c5nccs5)N4C3)C2)C1` (some centres unmarked) [Example 69]: the concentration for a half-maximal effect (EC50) is above 0.4 µM. On the same count and under the same terms, under `O=S(=O)(N[C@H]1CC2=C(c3ccn(C(F)F)n3)[C@H](c3ccc(F)cc3Cl)N=C(c3nccs3)N2C1)c1ccc([C@H]2CC[C@@](O)(c3ccccn3)CC2)cc1` [Example 384] stands below 0.1 µM. On the same count and under the same terms, next, `CC[C@@H](NS(=O)(=O)N[C@H]1CC2=C(c3ccn(C(F)F)n3)[C@H](c3ccc(F)cc3Cl)N=C(c3nccs3)N2C1)c1ccccn1` [Example 352]: 0.1 to 0.4 µM; `O=S(=O)(NCc1cnccn1)N[C@H]1CC2=C(c3ccn(C(F)F)n3)[C@H](c3ccc(F)cc3Cl)N=C(c3nccs3)N2C1` [Example 317]: below 0.1 µM; `COC(=O)CCCCS(=O)(=O)N[C@H]1CC2=C(c3ccn(C(F)F)n3)[C@H](c3ccc(F)cc3Cl)N=C(c3nccs3)N2C1` [Example 13]: 0.1 to 0.4 µM. Same read-out and setting: next, `O=S(=O)(Nc1ccc(C(O)c2ccccn2)cc1)N[C@H]1CC2=C(c3ccn(C(F)F)n3)[C@H](c3ccc(F)cc3Cl)N=C(c3nccs3)N2C1` (some centres unmarked) [Example 348]: below 0.1 µM.

The experiment is the same for the next values; noted with them: Hepatitis B virus, HePAD38, 120 h, read-out: HepAD38 EC50 (μM).
In the case of `O=C(N[C@H]1CC2=C(c3ccn(C(F)F)n3)[C@H](c3ccc(F)cc3Cl)N=C(c3nccs3)N2C1)Oc1ccccc1` [Example 200], the concentration for a half-maximal effect (EC50) is above 0.4 µM.
